Values joined by “and” are separate entries in the source; they are usually repeats but may differ in a detail not shown here. Equal entries are not always repeated.
System: SW1271 complex spheroids with HUVEC/MSC, growth, % test/control
Experiment: Anticancer human tumor SW1271 cell line growth inhibition [AhR];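 note: spheroids exposed to agents for 7 days before readout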
Details: for viability, T/C: stronger effect = lower value
Description: Multicellular complex tumor spheroid response to aryl hydrocarbon receptor antagonists in combination with a variety of drugs and investigational agents in selected tumor cell lines
The current study was undertaken to assess response to aryl hydrocarbon receptor antagonists in combination with standard-of-care drugs and investigational agents in solid tumor complex spheroid models. Complex spheroids include a stromal component modeled by human endothelial cells (HUVEC) and fibroblasts modeled by human mesenchymal stem cells (MSCs). The concentration ranges selected for each drug and investigational agent were based upon clinically achievable concentrations if the clinical Cmax of the agent was known.
Compounds. The drugs and investigational agents: BAY 2416964 (NSC825713), GNF351 (NSC835774), CH-223191 (NSC835775), CPI-455 (NSC825282), aza-TdCyd (NSC777586), decitabine (NSC127716), belinostat (NSC758774), entinostat (NSC756642), pevonedistat (NSC761192), tazemetostat (NSC777109), talazoparib (NSC765396), olaparib (NSC753686), selinexor (NSC780203), nedisertib (M3814, NSC802822), bortezomib (NSC756655), venetoclax (NSC766270), doxorubicin (NSC123127), elimusertib (BAY189344, NSC800525), ceralasertib (AZD6738, NSC777638), TAK-243 (NSC785004), alisertib (NSC759677), etoposide (NSC141540), topotecan (NSC609699), eribulin (NSC707389), gemcitabine (NSC613327), carboplatin (NSC241240), cisplatin (NSC119875), and SN-38 (NSC673596) were obtained from the National Cancer Institute (NCI) Developmental Therapeutics Program Chemical Repository (32). The FDA-approved anticancer drug set is available from the Developmental Therapeutics Program at https://dtp.cancer.gov/organization/dscb/obtaining/available plates.htm. […] The stock solutions were prepared in dimethyl sulfoxide (DMSO, Sigma-Aldrich, St. Louis, MO, cat. D2650), except for the platinum compounds which were prepared in saline (Quality Biological, Gaithersburg, MD, cat. 114-055-101), at 800-fold the tested concentration and stored at -70 degrees C prior to their use. All drugs and investigational agents were tested over a range starting from a high concentration at or near the clinical Cmax and decreasing in half-log increments. If the clinical Cmax for an agent had not been determined, the highest concentration tested was 10 microM (Table 1).
Cell Culture. All cells were maintained in an incubator at 37 degrees C and 5% CO2 with 95% humidity. The PDC lines were cultured according to standard operating procedures established by the NCI PDMR (https://pdmr.cancer.gov). Briefly, all PDCs were thawed and cultured in Matrigel-coated flasks prepared with a working solution of 1X Ham's F-12 nutrient mix, without supplementation (Invitrogen, Waltham, MA, cat. 11765054), 100 U/mL penicillin-streptomycin (Invitrogen, cat. 15140122), and 2.5% Matrigel (Corning Inc., Corning, NY, cat. 354248) for the first three passages. All PDCs were cultured in complete DMEM/F-12 media containing advanced DMEM/F-12 (Invitrogen, cat. 12634028), 4.9% defined fetal bovine serum, heat inactivated (HyClone Laboratories Inc., Logan, UT, cat. SH30070.03HI), 389 ng/mL hydrocortisone (Sigma-Aldrich, cat. H4001), 9.7 ng/mL human EGF recombinant protein (Invitrogen, cat. PHG0313), 23.4 microg/mL adenine (Sigma-Aldrich, cat. A2786), 97.3 U/mL penicillin-streptomycin (Invitrogen, cat. 15140122), 1.9 mM L-glutamine (Invitrogen, cat. 25030081), and 9.7 microM Y-27632 dihydrochloride (Tocris Bioscience, Bristol, United Kingdom, cat. 1254). The PDCs were cultured in complete DMEM/F12 media without 10 microM Y-27632 dihydrochloride for at least two passages prior to the screen. The established cell lines NCI-H1341 and […] were cultured in DMEM/F-12, HEPES (Invitrogen, cat. 11330032), 5% defined fetal bovine serum (HyClone Laboratories Inc., cat. SH30070.03), ITS premix universal culture supplement [insulin (5 microg/mL), transferrin (5 microg/mL), and selenious acid (5 ng/mL)] […]

## CC(C)CC(NC(=O)C(Cc1ccccc1)NC(=O)c1cnccn1)B(O)O (stereo unspecified)
Compound 0.000949 µM
  viability, T/C: 97.1% and 109% and 95.8%
Compound 0.003 µM
  viability, T/C: 89.3% and 86% and 67.3%
Compound 0.00949 µM
  viability, T/C: 7.81% and 7.15% and 1.46%
Compound 0.03 µM
  viability, T/C: 0.75% and 0.78% and 0.59%
Compound 0.0949 µM
  viability, T/C: 0.47% and 0.58% and 0.43%
Compound 0.3 µM
  viability, T/C: 0.64% and 0.89% and 0.44%
Curve of compound
  IC50: 5.23 nM and 5.07 nM and 4.06 nM

## CC(C)c1c(-c2ccccc2)nc2c(C#N)c[nH]n2c1=O
Compound 0.0316 µM
  viability, T/C: 110% and 109% and 85.9%
Compound 0.1 µM
  viability, T/C: 81.4% and 104% and 86.4%
Compound 0.316 µM
  viability, T/C: 121% and 91.8% and 104%
Compound 1 µM
  viability, T/C: 101% and 92.5% and 93.3%
Compound 3.16 µM
  viability, T/C: 110% and 91.8% and 94%
Compound 10 µM
  viability, T/C: 107% and 91.7% and 85.8%
Curve of compound
  IC50: > 10000 nM

## CC(CO)NC(=O)c1cc(-c2ccc(Cl)cc2)nn(-c2cnn(C)c2)c1=O (stereo unspecified)
Compound 0.1 µM
  viability, T/C: 94.2% [middle of 20 runs]
Compound alone, run of 08/08/2022
  IC50: > 10000 nM

## CC1(C)CCC(CN2CCN(c3ccc(C(=O)NS(=O)(=O)c4ccc(NCC5CCOCC5)c([N+](=O)[O-])c4)c(Oc4cnc5[nH]ccc5c4)c3)CC2)=C(c2ccc(Cl)cc2)C1
Compound 0.0316 µM
  viability, T/C: 93.6% and 94.9% and 90.9%
Compound 0.1 µM
  viability, T/C: 107% and 101% and 97.1%
Compound 0.316 µM
  viability, T/C: 104% and 75% and 108%
Compound 1 µM
  viability, T/C: 92.9% and 102% and 94.2%
Compound 3.16 µM
  viability, T/C: 101% and 110% and 105%
Compound 10 µM
  viability, T/C: 88% and 72.9% and 74.4%
Curve of compound
  IC50: > 10000 nM

## CC1COCCN1c1cc(-c2ccnn2C)c2ccnc(-c3ccn[nH]3)c2n1 (stereo unspecified)
Compound 0.00316 µM
  viability, T/C: 95.8% and 99.2% and 91%
Compound 0.01 µM
  viability, T/C: 90.6% and 102% and 103%
Compound 0.0316 µM
  viability, T/C: 76.6% and 71.1% and 85.7%
Compound 0.1 µM
  viability, T/C: 58.4% and 65.3% and 70.1%
Compound 0.316 µM
  viability, T/C: 51.8% and 61.9% and 60.3%
Compound 1 µM
  viability, T/C: 43.8% and 46.2% and 45.5%
Curve of compound
  IC50: 294 nM and > 1000 nM and 712 nM

## CC1COCCN1c1cc(C2(S(C)(=N)=O)CC2)nc(-c2ccnc3[nH]ccc23)n1 (stereo unspecified)
Compound 0.0316 µM
  viability, T/C: 106% and 99.7% and 91.9%
Compound 0.1 µM
  viability, T/C: 85.4% and 106% and 103%
Compound 0.316 µM
  viability, T/C: 87.8% (2×) and 79.2%
Compound 1 µM
  viability, T/C: 77.5% and 84% and 73.8%
Compound 3.16 µM
  viability, T/C: 80.1% and 69.6% and 68.8%
Compound 10 µM
  viability, T/C: 59.5% and 70.1% and 51.9%
Curve of compound
  IC50: > 10000 nM

## CCN(c1cc(-c2ccc(CN3CCOCC3)cc2)cc(C(=O)NCc2c(C)cc(C)[nH]c2=O)c1C)C1CCOCC1
Compound 0.00949 µM
  viability, T/C: 104% and 90.3% and 94.7%
Compound 0.03 µM
  viability, T/C: 96.7% and 99.1% and 104%
Compound 0.0949 µM
  viability, T/C: 86.3% and 110% and 120%
Compound 0.3 µM
  viability, T/C: 93.2% and 124% and 111%
Compound 0.949 µM
  viability, T/C: 90.6% and 106% and 125%
Compound 3 µM
  viability, T/C: 102% and 115% and 107%
Curve of compound
  IC50: > 3000 nM

## CC[C@@]1(O)C(=O)OCc2c1cc1n(c2=O)Cc2cc3c(CN(C)C)c(O)ccc3nc2-1
Compound 0.000316 µM
  viability, T/C: 105% and 80.9% and 102%
Compound 0.001 µM
  viability, T/C: 108% and 64.1% and 91.1%
Compound 0.00316 µM
  viability, T/C: 80.9% and 87% and 83.4%
Compound 0.01 µM
  viability, T/C: 91.5% and 70% and 96.8%
Compound 0.0316 µM
  viability, T/C: 89% and 65% and 78.6%
Compound 0.1 µM
  viability, T/C: 74.6% and 45.2% and 70%
Curve of compound
  IC50: > 100 nM and 75.4 nM

## CCc1c2c(nc3ccc(O)cc13)-c1cc3c(c(=O)n1C2)COC(=O)[C@]3(O)CC
Compound 0.000949 µM
  viability, T/C: 78.1% and 88.3% and 86.2%
Compound 0.003 µM
  viability, T/C: 79.8% and 97.7% and 79%
Compound 0.00949 µM
  viability, T/C: 64.6% and 71.7% and 61.4%
Compound 0.03 µM
  viability, T/C: 67% and 58.3% and 59.9%
Compound 0.0949 µM
  viability, T/C: 55.6% and 56% and 60.6%
Compound 0.3 µM
  viability, T/C: 44.9% and 53.3% and 49.2%
Curve of compound
  IC50: 177 nM and > 300 nM

## COc1cc(C2c3cc4c(cc3C(OC3OC5COC(C)OC5C(O)C3O)C3COC(=O)C23)OCO4)cc(OC)c1O (stereo unspecified)
Compound 0.0316 µM
  viability, T/C: 81.3% and 81.6% and 96.4%
Compound 0.1 µM
  viability, T/C: 82.5% and 92.6% and 64.2%
Compound 0.316 µM
  viability, T/C: 63.9% and 54.3% and 41.1%
Compound 1 µM
  viability, T/C: 61.9% and 51% and 46.1%
Compound 3.16 µM
  viability, T/C: 60.1% and 72.8% and 44.8%
Compound 10 µM
  viability, T/C: 50.8% and 45.9% and 39.2%

## COc1cc(Nc2ncc3c(n2)-c2ccc(Cl)cc2C(c2c(F)cccc2OC)=NC3)ccc1C(=O)O
Compound 0.0316 µM
  viability, T/C: 80.7% and 65.3% and 70.4%
Compound 0.1 µM
  viability, T/C: 91.2% and 67.1% and 74.3%
Compound 0.316 µM
  viability, T/C: 92.5% and 67% and 66.7%
Compound 1 µM
  viability, T/C: 83.3% and 64.7% and 68.1%
Compound 3.16 µM
  viability, T/C: 72.4% and 61.5% and 57.6%
Compound 10 µM
  viability, T/C: 43.3% and 49% and 51.4%
Curve of compound
  IC50: 7650 nM and > 10000 nM
